Where a name gives a salt, the structure may show the parent alone.
Experiments:
[1] = test system: myocardial infarct; assay: Rodent model of acute myocardial infarct (LAD occlusion/reperfusion); assay type: in vivo, Sprague-Dawley rats
Experimental: A rodent model of acute myocardial infarct, in which the proximal left anterior descending coronary artery (LAD) is occluded for 60 min followed by reperfusion, was used to determine whether test agents reduced infarct size at 24 hours.
Myocardial infarcts were created in Sprague-Dawley rats (200-300 g body weight) by a 60 min occlusion of the LAD followed by LAD reperfusion. […] At 24 hr post-treatment, the ischemic zone (area at-risk, AAR) was delineated by re-ligation of the LAD followed by IV injection of alkali blue dye, after which hearts were sectioned along the short axis and stained using triphenyltetrazolium chloride to delineate viable from infarcted myocardium. Photographic images were then analyzed using morphometric software to calculate infarct area as a percent of the at-risk area.
Rodent MI model: All animal studies followed current “NIH Guidelines for the Use of Laboratory Animals” and were performed according to IACUC-approved protocols. Sprague-Dawley rats (275-300 g) were anesthetized using inhaled isoflurane after which chest walls were shaved and swabbed with iodine. Animals were then intubated and maintained on 2% isoflurane (delivered in 30% O2/70% N2), with optimal respiratory rate and stroke volumes set by a volume-controlled safety ventilator (Inspira Advanced Safety Ventilator; Harvard Apparatus, Holliston, Mass.). Body temperatures were maintained at 35-37° C. using heating pads and five-lead electrocardiograms established. For each animal, a left thoracotomy was performed at the third intercostal space, the heart was exposed and a suture snare tightened around the LAD at the point it appeared from beneath the left atrium. Ischemia was confirmed from blanching of the left ventricle (LV) as well as changes in ECG patterns. After the desired period of occlusion (60 min in the standard model), the suture snare was loosened to allow complete reperfusion (but retained in place using shallow sutures) and the chest closed in layers. […].
For infarct size determination, LAD occlusion was repeated on each animal 24 hr after the initial occlusion. The ischemic zone (area-at-risk or AAR) was then delineated by i.v. injection of Evans blue dye (5 ml of a 10% saline solution containing 100 U/ml sodium heparin). The heart was explanted, atria and right ventricle trimmed free, and the LV (septal and free walls) frozen at −20° C. to induce rigor. After thawing on ice, the LV was subdivided into six 2 mm thick sections along the short axis using a metal form to guide dissection. Heart sections were stained for 20 min in 37° C. triphenyltetrazolium chloride (TTC, 2% in 0.04 M K2HPO4/0.17 M sucrose) to delineate viable from infarcted myocardium, fixed for 20 min in 10% formalin, then rinsed in saline. For each section, photographs were taken of both anterior and posterior surfaces and these images analyzed (by personnel blinded as to treatment identity) using a morphometric software package (Image Pro Plus; Media Cybernetics, Silver Spring, Md.). The following areas were calculated, based on their differing pixel densities: non-ischemic zone (Evans blue-stained), viable-but-ischemic zone (free of Evans blue but TTC-stained), and infarct-within-ischemic zone (free of both Evans blue and TTC stain). Area values for anterior and posterior views were averaged, and these values used to calculate the following AAR=Viable-but-ischemic Area+Infarct Area Equation 1 Total LV Area=AAR+Non-ischemic Area Equation 2

[2] = target: T1, human p120γ subunit of PI3K (Homo sapiens, UniProt P48736); assay: PI3K enzymatic activity at two concentrations (Upstate Group); assay type: biochemical; conditions: 100% = no inhibition, 0% = complete inhibition
T1 construct: purchased Upstate Group, Charlottesville, Va; (contract assay)
T1 sequence (P48736 whole entry): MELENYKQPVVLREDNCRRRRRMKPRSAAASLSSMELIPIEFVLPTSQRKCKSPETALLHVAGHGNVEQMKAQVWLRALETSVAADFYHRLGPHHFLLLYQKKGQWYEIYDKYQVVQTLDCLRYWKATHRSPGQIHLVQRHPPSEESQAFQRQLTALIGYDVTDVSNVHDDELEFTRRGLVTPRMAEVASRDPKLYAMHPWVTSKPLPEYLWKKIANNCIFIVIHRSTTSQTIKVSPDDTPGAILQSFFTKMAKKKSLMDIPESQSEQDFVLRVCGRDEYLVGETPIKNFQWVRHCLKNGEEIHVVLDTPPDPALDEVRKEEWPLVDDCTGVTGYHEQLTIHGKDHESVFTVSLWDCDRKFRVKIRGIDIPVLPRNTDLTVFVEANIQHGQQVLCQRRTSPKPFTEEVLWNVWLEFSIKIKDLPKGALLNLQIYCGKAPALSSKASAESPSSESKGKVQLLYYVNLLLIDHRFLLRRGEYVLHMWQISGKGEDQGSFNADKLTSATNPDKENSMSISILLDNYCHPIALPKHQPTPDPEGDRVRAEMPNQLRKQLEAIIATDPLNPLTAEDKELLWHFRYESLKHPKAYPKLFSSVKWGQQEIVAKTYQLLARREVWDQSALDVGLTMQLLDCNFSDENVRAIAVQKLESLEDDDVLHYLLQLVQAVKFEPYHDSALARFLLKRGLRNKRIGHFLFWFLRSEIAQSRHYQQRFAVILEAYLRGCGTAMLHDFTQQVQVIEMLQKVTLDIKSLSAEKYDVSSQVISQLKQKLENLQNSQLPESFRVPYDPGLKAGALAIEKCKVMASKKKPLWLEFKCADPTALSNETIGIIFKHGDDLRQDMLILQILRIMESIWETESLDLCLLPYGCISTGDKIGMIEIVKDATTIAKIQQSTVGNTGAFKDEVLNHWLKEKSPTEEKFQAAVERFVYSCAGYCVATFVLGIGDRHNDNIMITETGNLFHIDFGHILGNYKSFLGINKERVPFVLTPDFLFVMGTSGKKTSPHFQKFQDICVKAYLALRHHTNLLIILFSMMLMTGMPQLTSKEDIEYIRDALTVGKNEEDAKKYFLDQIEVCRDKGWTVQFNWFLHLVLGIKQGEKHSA
Experimental: The ability of compounds to inhibit the activity of PI3K kinase was determined using biochemical assays. In a first assay, compounds were tested at two concentrations (0.5 and 5 μM) for their ability to inhibit enzymatic activity of the human p120γ subunit of PI3K (the assay being performed under contract by Upstate Group, Charlottesville, Va.).

[3] = test system: VEGF-induced edema; assay: Miles assay, VEGF as agonist; assay type: in vivo, Sprague-Dawley rats; conditions: vehicle 12; for Score with VEGF as agonist (scale of 0-12): 1.5 mg/kg, VEGF 200 ng/injection site; for Score (scale of 0-12): VEGF 200 ng/site, lower score = greater anti-edema activity
Experimental: A rodent model of vascular edema, the Miles assay, was used to screen compounds for their ability to inhibit VEGF-induced edema. […] Sprague-Dawley rats were first injected IV with vehicle alone or test agent, followed by IV injection of Evans blue dye, followed by intradermal injections of saline and VEGF (200 ng/injection site) along both shaved flanks.

[4] = test system: cerebral infarct; assay: Rodent model of cerebral stroke (permanent middle cerebral artery occlusion); assay type: in vivo, mice; conditions: 1 mg/kg BW IV 60 min after ligation; for Infarct area in mm^3 (mean ± SEM): 24 hours; for % Infarct reduction: vs vehicle
Experimental: A rodent model of cerebral stroke, in which the middle cerebral artery is permanently occluded, was used to determine whether test agents reduced infarct size at 24 hours.
Cerebral strokes were created in mice by permanent ligation of the middle cerebral artery using a cauterizing tool, followed 60 min later by IV injection of either vehicle alone (50% PEG400 in water) or test agents (at 1 mg/kg BW). Twenty four hours later, brains were sectioned and stained using triphenyltetrazolium chloride to delineate viable from infarcted tissue. Photographic images were then analyzed using morphometric software to calculate infarct area.

[5] = test system: histamine-induced edema; assay: Miles assay, histamine as agonist; assay type: in vivo, Sprague-Dawley rats; conditions: 1.5 mg/kg; histamine 10 μg/injection site; vehicle 12
Experimental: Sprague-Dawley rats were first injected IV with vehicle alone or test agent, followed by IV injection of Evans blue dye, followed by intradermal injections of saline and VEGF (200 ng/injection site) along both shaved flanks. […] The ability of test agents to influence edema induced by agonists other than VEGF was also tested. Compounds cited in this application inhibited edema formation induced using histamine as an agonist, for example, as shown below. The ability of test agent to influence vascular edema was tested as above, except that the ability to block edema was tested using either VEGF or histamine as the agonist (200 ng and 10 μg/injection site, respectively).

[6] = 1.5 mg/kg BW IV at 90 min post-reperfusion, 24 hr
[7] = 1.5 mg/kg BW IV at 90 min post-reperfusion, vs vehicle

With `Cl.Nc1nc(N)c2nc(-c3ccc(O)c(O)c3)c(-c3ccc(O)c(O)c3)nc2n1` [6,7-bis(3,4-dihydroxyphenyl)-pteridine-2,4,-diamine, hydrochloride salt] the “Infarct (% AAR, mean ± SEM)” value [1, 6] was 36.3 ± 6.3 % AAR and the “% Infarct reduction” value [1, 7] was 33%.

With `Nc1cncc2nc(-c3cccc(O)c3)c(-c3cccc(O)c3)nc12` [3,3′-(8-aminopyrido[3,4-]pyrazine-2,3-diyl)diphenol] the “Percent Control Value at 0.5 μM” value ([2]; 0.5 μM) was 101% and the “Percent Control Value at 5 μM” value ([2]; 5 μM) was 90%.

In the case of `O=C(Nc1cc2ccccc2[nH]1)c1cc(O)c(O)c(O)c1` [3,4,5-Trihydroxy-N-(1H-indol-2-yl)-benzamide], the “Score with VEGF as agonist (scale of 0-12)” value (shortened to “Score with VEGF as agonist”) [3] was 5.

With `Nc1cncc2nc(-c3ccc(O)c(O)c3)c(-c3ccc(O)c(O)c3)nc12` [2,3-(3,4-Dihydroxyphenyl)-pyrido[3,4-b]pyrazin-8-ylamine] the “Score (scale of 0-12)” value ([3]; 0.01 mg/kg IV) was 6.

For `O=C(CCc1ccc(O)cc1)Nc1ccccc1-c1cc2ccccc2[nH]1` [3-(4-Hydroxy-phenyl)-N-[2-(1H-indol-2-yl)-phenyl]-propionamide], the “Score (scale of 0-12)” value ([3]; 1.5 mg/kg IV) was 2.

For `Nc1nc(N)c2nc(CNCc3ccccn3)cnc2n1` [6-{[(Pyridin-2-ylmethyl)-amino]-methyl}-pteridine-2,4-diamine], the “Score (scale of 0-12)” value ([3]; 0.1 mg/kg IV) was 4.

In the case of `Oc1ncnc2nc(-c3ccccc3)c(-c3ccccc3)nc12` [6,7-Diphenyl-pteridin-4-ol], the “Score with VEGF as agonist” value [3] was 3.

`Cc1ccc(-c2nn(C(C)(C)C)c3ncnc(N)c23)cc1` [PP1, reference compound] was tested, and the “Infarct area in mm^3 (mean ± SEM)” value [4] was 35.4 ± 6.4 mm^3 and the “% Infarct reduction” value [4] was “Not significant”.

`CN(C)S(=O)(=O)c1ccc2c(c1)/C(=C/c1cc3c([nH]1)CCCC3)C(=O)N2` [SU6656, reference compound] was tested, and the “% Infarct reduction” value [4] was “Not significant”.

In the case of `Nc1ncnc2nc(-c3ccccn3)c(-c3ccccn3)nc12` [6,7-Di-pyridin-2-yl-pteridin-4-ylamine], the “% Infarct reduction” value [4] was “Not significant”.

`Nc1nc(N)c2nc(CNCc3ccc(O)c(O)c3)cnc2n1` [4-{[(2,4-Diamino-pteridin-6-ylmethyl)-amino]-methyl}-benzene-1,2-diol] was tested, and the “Score (scale of 0-12)” value ([3]; 5 mg/kg IV) was 4.

`Cl.Nc1ncnc2nc(-c3ccc(O)c(O)c3)c(-c3ccc(O)c(O)c3)nc12` [4-[4-amino-6-(3,4-dihydroxyphenyl)pteridin-7-yl]benzene-1,2-diol chloride salt] was tested, and the “Score (scale of 0-12)” value ([3]; 0.01 mg/kg IV) was 6, the “Score (scale of 0-12)” value ([3]; 0.1 mg/kg IV) was 3 and the “Score (scale of 0-12)” value ([3]; 1 mg/kg IV) was 5.

In the case of `Cl.Cl.Nc1nc(N)c2nc(-c3cccc(O)c3)c(-c3cccc(O)c3)nc2n1` [3-[2,4-diamino-6-(3-hydroxyphenyl)pteridin-7-yl] phenol dihydrochloride salt], the “Infarct (% AAR, mean ± SEM)” value ([1]; 0.1 mg/kg BW IV at 90 min post-reperfusion, 24 hr) was 37.7 ± 5.8 % AAR, the “% Infarct reduction” value ([1]; 0.1 mg/kg BW IV at 90 min post-reperfusion, vs vehicle) was 30% and the “% Infarct reduction” value ([1]; 0.1 mg/kg, administration 60 and 240 min post-occlusion) was 55%. The “Infarct (% AAR, mean ± SEM)” value ([1]; 0.1 mg/kg, administration 60 and 240 min post-occlusion, vehicle 54.0 ± 2.9) was 24.2 ± 4.9 % AAR, the “% Infarct reduction” value ([1]; 0.1 mg/kg, administration 60 min post-occlusion) was 60% and the “Infarct (% AAR, mean ± SEM)” value ([1]; 0.1 mg/kg, administration 60 min post-occlusion, vehicle 54.0 ± 2.9) was 21.6 ± 5.7 % AAR. The “% Infarct reduction” value ([1]; 0.1 mg/kg, administration 120 min post-occlusion) was 65%, the “Infarct (% AAR, mean ± SEM)” value ([1]; 0.1 mg/kg, administration 120 min post-occlusion, vehicle 54.0 ± 2.9) was 18.8 ± 5.6 % AAR and the “% Infarct reduction” value ([1]; 0.1 mg/kg, administration 240 min post-occlusion) was 65%. The “Infarct (% AAR, mean ± SEM)” value ([1]; 0.1 mg/kg, administration 240 min post-occlusion, vehicle 54.0 ± 2.9) was 19.1 ± 4.0 % AAR, the “Infarct (% AAR, mean ± SEM)” value ([1]; 1.0 mg/kg BW IV at 90 min post-reperfusion, 24 hr) was 46.4 ± 2.6 % AAR and the “% Infarct reduction” value ([1]; 1.0 mg/kg BW IV at 90 min post-reperfusion, vs vehicle) was “Not significant”. For the same compound, the “Score (scale of 0-12)” value ([3]; 0.01 mg/kg IV) was 3, the “Score (scale of 0-12)” value ([3]; 0.1 mg/kg IV) was 4 and the “Score (scale of 0-12)” value ([3]; 1 mg/kg IV) was 4.

With `O=C(Nc1ccccc1-c1cc2ccccc2[nH]1)c1cc(O)c(O)c(O)c1` [3,4,5-Trihydroxy-N-[2-(1H-indol-2-yl)-phenyl]-benzamide] the “Score with VEGF as agonist” value [3] was 4.

For `Nc1nc(N)c2nc(-c3ccc(O)cc3)cnc2n1` [4-(2,4-Diamino-pteridin-6-yl)-phenol (sulfate salt)], the “Score (scale of 0-12)” value ([3]; 5 mg/kg IV) was 2.

For `O=C(Nc1ccccc1-c1cc2ccccc2[nH]1)c1cccnc1C(=O)O` [3-[2-(1H-Indol-2-yl)-phenylcarbamoyl]-pyridine-2-carboxylic acid], the “Score (scale of 0-12)” value ([3]; 0.5 mg/kg IV) was 5.

`Nc1ncnc2nc(-c3ccc(O)cc3)c(-c3ccc(O)cc3)nc12.O=S(=O)(O)O` [6,7-bis(4-hydroxyphenyl)-pteridin-4-ylamine sulfate salt] was tested, and the “Infarct (% AAR, mean ± SEM)” value [1, 6] was 60.6 ± 1.8 % AAR, the “% Infarct reduction” value [1, 7] was 20% and the “Score with histamine as agonist (scale of 0-12)” value [5] was 3. The “Score with VEGF as agonist” value [3] was 4, the “Infarct area in mm^3 (mean ± SEM)” value [4] was 18.3 ± 2.6 mm^3 and the “% Infarct reduction” value [4] was 53%.
